The substances below were run on anti-M2 human monoclonal antibody Z3G1.
Type: binding

Substance | Signal (peptides that bind to Z3G1) | Signal (peptides that show specific binding to Z3G1)
1346 (MCLLTEVGMSLLTCV; epitope peptide) [compound 1346] | 1098 | 
1330 (MSLLCEVECPIRNE; epitope peptide) [compound 1330] | 2606 | 
1290 (MSLLPEVETPIRNEWGCRCN; epitope peptide) [compound 1290] | 2728 | 
1585 (SLLKEVETPIRNEWGCRCNDSSD; epitope peptide) [compound 1585] |  | 2611
1458 (CLTEVETPIRLLTEVETPICTEVETPIRN; epitope peptide; MISC_FEATURE (1)..(1): C is an attachment site for a CLIP; MISC_FEATURE (10)..(10): R is an attachment site for a CLIP; MISC_FEATURE (11)..(11): L is an attachment site for a CLIP; MISC_FEATURE (29)..(29): N is an attachment site for a CLIP) [compound 1458] | 1756 | 
1586 (SLLLEVETPIRNEWGCRCNDSSD; epitope peptide) [compound 1586] |  | 2344
1459 (CTEVETPIRNLLTEVETPICTEVETPIRN; epitope peptide; MISC_FEATURE (1)..(1): C is an attachment site for a CLIP; MISC_FEATURE (10)..(10): N is an attachment site for a CLIP; MISC_FEATURE (11)..(11): L is an attachment site for a CLIP; MISC_FEATURE (29)..(29): N is an attachment site for a CLIP) [compound 1459] | 1749 | 
1257 (MKLLTEVETPIRNEWGCRCN; epitope peptide) [compound 1257] | 2629 | 
1589 (SLLVEVETPIRNEWGCRCNDSSD; epitope peptide) [compound 1589] |  | 1932
1473 (CEVETPIRNESLLTEVETPCEVETPIRNE; epitope peptide; MISC_FEATURE (1)..(1): C is an attachment site for a CLIP; MISC_FEATURE (10)..(10): E is an attachment site for a CLIP; MISC_FEATURE (11)..(11): S is an attachment site for a CLIP; MISC_FEATURE (29)..(29): E is an attachment site for a CLIP) [compound 1473] | 2006 | 
1294 (MSLLVEVETPIRNEWGCRCN; epitope peptide) [compound 1294] | 2732 | 
1270 (MSLDTEVETPIRNEWGCRCN; epitope peptide) [compound 1270] | 2594 | 
1360 (CLLCEVETPIRNE; epitope peptide) [compound 1360] | 2314 | 
1334 (MSLLCEVGMCLLTEV; epitope peptide) [compound 1334] | 2676 | 
1582 (SLLGEVETPIRNEWGCRCNDSSD; epitope peptide) [compound 1582] |  | 2301
1581 (SLLFEVETPIRNEWGCRCNDSSD; epitope peptide) [compound 1581] |  | 2137
1300 (MSLLTEVDTPIRNEWGCRCN; epitope peptide) [compound 1300] | 2856 | 
1446 (CETPIRNEWGLLTEVETPICLTEVETPIR; epitope peptide; MISC_FEATURE (1)..(1): C is an attachment site for a CLIP; MISC_FEATURE (10)..(10): G is an attachment site for a CLIP; MISC_FEATURE (11)..(11): L is an attachment site for a CLIP; MISC_FEATURE (29)..(29): R is an attachment site for a CLIP) [compound 1446] | 2367 | 
1323 (MCLLTEVCTPIRNE; epitope peptide) [compound 1323] | 1407 | 
